One block for each compound: values may come before it.
Key:
[1] = test system: Douglas-fir zygotic embryos; experiment: Initiation frequency of embryogenic cultures from Douglas-fir zygotic embryos; assay type: cell-based; details: 1.0 ppm in media #121 (Media 1323); 8-9 weeks, dark; control 16.4
Description: Four Douglas-fir cone collections with zygotic embryos at stages 2-4 were chosen. Cones were supplied by The Timber Co. from Cottage Grove, Oregon. Seeds were removed from their cones, soaked in running water for 10 min., and agitated in 10% liquinox containing 1.1 ml/l Tween 20 for an additional 10 min. The seeds were then rinsed with running tap water for 30 min. Seeds were transferred into a laminar flow hood where they were sterilized by agitating in 20% H2O2 for 10 min. Seeds were rinsed in sterilized water for 5 cycles of 5 to 10 min. each. The sterile seeds were placed into a sterile petri dish and dissected. The dissection was performed by splitting the ovule, gently removing the dominant embryo while leaving the suspensor intact, and placing both the embryo and the connected female gametophyte on the test medium. Test medium #1323 is the same as control media #121 but contains 1.0 ppm paclobutrazol. 2 ml of the appropriate medium was poured into multi-well plates sufficient for 10 replications per cone collection. The plates were incubated in the dark for 8-9 weeks at 24-26° C. […] Four Douglas-fir cone collections with zygotic embryos at stages 2-4 were chosen. […] The initiation frequency for the four cone collections with the addition of salts, paclobutrazol, and brassinolide enclosed in a nylon bag was determined to be 38.6%. […]

[2] = test system: slash pine megagametophyte; experiment: Initiation frequency of embryogenic cultures from slash pine megagametophytes; assay type: cell-based; details: 1.0 ppm paclobutrazol in media #1369B (Media 1374); 8 weeks, dark; control 19.3
Description: A further representative example in conifer to show the effects of gibberellin inhibitors in a buffered media is slash pine. Three cone collections with embryos at stages 2-4 were chosen. Removed seeds were soaked in running water for […]. and then agitated in 10% liquinox containing 1.1 ml/l Tween 20 for an additional 10 min. Seeds were sterilized in a laminar flood by agitating in 20% H2O2 for 10 min. Seeds were rinsed in sterilized water for 5 cycles of 5 to 10 min. each. The sterile seeds were placed into a sterile petri dish and dissected. The dissection was performed by splitting the seed coat, removing the integuments and nucellus, and placing the megagametophyte on the test medium. Test media #1374 contains the components of media #1369B and 1.0 ppm paclobutrazol. 2 ml of the appropriate media was poured into multi-well plates sufficient for 10 replications for each genotype. The plates were then incubated in the dark for 8 weeks at 24-26° C.

[3] = Media pH during Loblolly pine embryogenic culture growth; assay type: physicochemical
Description: The pH of media containing four different concentrations of MES was compared to that of a non-buffered control media during eight weeks of embryogenic culture growth. Maintenance cultures were established on treatment media using single isolated somatic embryos. Maintenance cultures were prepared and cultured essentially as described in Example 5.
The control media was #1043. (See Table 21). The treatment media consisted of #1043 supplemented with 250, 500, 1000 and 1500 mg/l MES. Media pH was adjusted to 5.7 within all treatments prior to autoclaving, pouring and solidification. Immediately after pouring the media, and thereafter at two week intervals, media pH was measured up to the eighth week of culture growth. At each sampling time, four cultures from each media-genotype treatment were destructively sampled to measure the pH of the media directly underlying the growing embryogenic tissue.

Structure (SMILES): CC(C)(C)[C@@H](O)[C@@H](Cc1ccc(Cl)cc1)n1cncn1 (racemic) [paclobutrazol]
- Initiation Frequency (%) [1]: 24.4%
- Initiation Frequency (%) [2]: 28.5%

- Media pH ([3]; 250 mg/l in media #1043, 0 weeks): 5.55
- Media pH ([3]; 250 mg/l in media #1043, 2 weeks): 5.43
- Media pH ([3]; 250 mg/l in media #1043, 4 weeks): 4.69
- Media pH ([3]; 250 mg/l in media #1043, 6 weeks): 4.68
- Media pH ([3]; 250 mg/l in media #1043, 8 weeks): 4.72
- Media pH ([3]; 500 mg/l in media #1043, 0 weeks): 5.63
- Media pH ([3]; 500 mg/l in media #1043, 2 weeks): 5.50
- Media pH ([3]; 500 mg/l in media #1043, 4 weeks): 4.78
- Media pH ([3]; 500 mg/l in media #1043, 6 weeks): 4.77
- Media pH ([3]; 500 mg/l in media #1043, 8 weeks): 4.54
- Media pH ([3]; 1000 mg/l in media #1043, 0 weeks): 5.67
- Media pH ([3]; 1000 mg/l in media #1043, 2 weeks): 5.57
- Media pH ([3]; 1000 mg/l in media #1043, 4 weeks): 5.38
- Media pH ([3]; 1000 mg/l in media #1043, 6 weeks): 4.70
- Media pH ([3]; 1000 mg/l in media #1043, 8 weeks): 4.89
- Media pH ([3]; 1500 mg/l in media #1043, 0 weeks): 5.67
- Media pH ([3]; 1500 mg/l in media #1043, 2 weeks): 5.59
- Media pH ([3]; 1500 mg/l in media #1043, 4 weeks): 5.59
- Media pH ([3]; 1500 mg/l in media #1043, 6 weeks): 4.91
- Media pH ([3]; 1500 mg/l in media #1043, 8 weeks): 5.18
Structure (SMILES): O=S(=O)(O)CCN1CCOCC1 [MES, 2-(N-morpholino)-ethanesulfonic acid]

Reference: US20060051868A1, “Methods for increasing conifer somatic embryo initiation, capture, and multiplication” (priority 2001, published 2006)
